Test results reported in publication PMC8689007, “In Silico Prediction and Bioactivity Evaluation of Chemical Ingredients Against Influenza A Virus From Isatis tinctoria L” (Frontiers in Pharmacology, 2021).
Converted amounts (≈) assume the structure as drawn. “And” between values parts separate entries of the source, which are not always exact repeats. Identical values can stand only once. Like-named read-outs stand apart in the source and are kept apart here.

How the values were obtained:
[1] = tested on: A/Minfang/151/2000 (H3N2); experiment: microbe, parasite or virus in culture; conditions: Influenza A virus, H3N2, MDCK
[2] = tested on: A/Minfang/151/2000 (H3N2)
A/PR/8/34 (H1N1) [3] = tested on: A/PR/8/34 (H1N1)
A/PR/8/34 (H1N1) [4] = experiment: microbe, parasite or virus in culture; conditions: Influenza A virus, MDCK
H1N1 = conditions: restraint-stressed mouse model; ref Chong et al., 2017; cited from earlier work
[5] = tested on: Japanese encephalitis virus (JEV); conditions: in vitro; ref Chang et al., 2012; cited from earlier work
[6] = tested on: Japanese encephalitis virus (JEV); conditions: mouse model; ref Chang et al., 2012; cited from earlier work
HCoV-NL63 = tested on: HCoV-NL63; set-up: method as in Tsai et al., 2020; conditions: HCoV-NL63-infected cells; ref Tsai et al., 2020; read-out: IC50 (CPE and virus yield); cited from earlier work

Row | SMILES | IC50 [1] | IC50 [2] | IC50 (A/PR/8/34 (H1N1) [3]) | IC50 (A/PR/8/34 (H1N1) [4]) | also measured
1 | COc1ccc(-c2cc(=O)c3c(O)cc(O)cc3o2)cc1 [Acacetin] | 7.62 ± 1.45 µg/mL (≈ 26.8 µM) | – | – | – | –
2 | COc1ccc(-c2cc(=O)c3c(O)cc(O[C@@H]4O[C@H](CO[C@@H]5O[C@@H](C)[C@H](O)[C@@H](O)[C@H]5O)[C@@H](O)[C@H](O)[C@H]4O)cc3o2)cc1 [Linarin] | – | 81.85 ± 2.76 µg/mL and 86.35 ± 9.88 µg/mL and 77.71 ± 3.08 µg/mL | 54.27 ± 3.01 µg/mL and 72.21 ± 2.42 µg/mL and 56.26 ± 0.78 µg/mL | 63.2 ± 3.32 µg/mL (≈ 107 µM) | –
3 | COc1ccc(-c2cc(=O)c3c(O)c(OC)c(OC)cc3o2)cc1O [Eupatorin] | – | 69.31 ± 1.97 µg/mL and 73.85 ± 1.34 µg/mL and 92.58 ± 0.33 µg/mL | 63.99 ± 3.38 µg/mL and 55.77 ± 3.86 µg/mL and 88.92 ± 7.34 µg/mL | 59.5 ± 3.58 µg/mL (≈ 173 µM) | –
4 | COc1c(O)cc2oc(-c3ccc(O)cc3)cc(=O)c2c1O [Dinatin] | > 100 µg/mL | – | – | – | –
5 | O=C1Nc2ccccc2/C1=C1/Nc2ccccc2C1=O [Indirubin] | 77.2 ± 6 µg/mL (≈ 294 µM) | – | 63.45 ± 5.27 µg/mL and 86.3 ± 5.68 µg/mL and 69.49 ± 1.36 µg/mL | 58.5 ± 10.2 µg/mL (≈ 223 µM) | H1N1 susceptibility and lung damage (H1N1): decrease the H1N1 susceptibility and alleviate lung damage; inhibitory activity on JEV replication [5]: concentration-dependent inhibitory activity; protection against lethal JEV challenge [6]: good protective effects
6 | O=C1c2ccccc2-n2c1nc1ccccc1c2=O [Tryptanthrin] | – | – | – | – | IC50 (HCoV-NL63): 1520 nM
